Source: ChEMBL document CHEMBL5131476, “Development of dihydropyrrolopyridinone-based PKN2/PRK2 chemical tools to enable drug discovery” (Bioorg Med Chem Lett, 2022)
pIC50, pKi: −log10 of the molar value.

Columns and labels:
[1] = target: T1, Serine/threonine-protein kinase N1 (Homo sapiens, UniProt Q16512); assay: Inhibition of PKN1 (unknown origin) by TR-FRET-based tracer displacement assay dependent Cheng-Prusoff equation analysis
[2] = Toxicity in human HeLa cells assessed as cell viability at 50 uM incubated for 24 hrs by MTT assay; assay type: cell-based; conditions: read-out: Activity
[3] = target: T1, Serine/threonine-protein kinase N1; assay: Inhibition of PKN1 (unknown origin) by TR-FRET-based tracer displacement assay
[4] = target: T2, Serine/threonine-protein kinase N2 (Homo sapiens, UniProt Q16513); assay: Inhibition of NanoLuc-PKN2 (ser646-cys984)(unknown origin) expressed in HEK293 cells in […] by cell-based NanoBRET target engagement assay
T2 sequence (Q16513 whole entry): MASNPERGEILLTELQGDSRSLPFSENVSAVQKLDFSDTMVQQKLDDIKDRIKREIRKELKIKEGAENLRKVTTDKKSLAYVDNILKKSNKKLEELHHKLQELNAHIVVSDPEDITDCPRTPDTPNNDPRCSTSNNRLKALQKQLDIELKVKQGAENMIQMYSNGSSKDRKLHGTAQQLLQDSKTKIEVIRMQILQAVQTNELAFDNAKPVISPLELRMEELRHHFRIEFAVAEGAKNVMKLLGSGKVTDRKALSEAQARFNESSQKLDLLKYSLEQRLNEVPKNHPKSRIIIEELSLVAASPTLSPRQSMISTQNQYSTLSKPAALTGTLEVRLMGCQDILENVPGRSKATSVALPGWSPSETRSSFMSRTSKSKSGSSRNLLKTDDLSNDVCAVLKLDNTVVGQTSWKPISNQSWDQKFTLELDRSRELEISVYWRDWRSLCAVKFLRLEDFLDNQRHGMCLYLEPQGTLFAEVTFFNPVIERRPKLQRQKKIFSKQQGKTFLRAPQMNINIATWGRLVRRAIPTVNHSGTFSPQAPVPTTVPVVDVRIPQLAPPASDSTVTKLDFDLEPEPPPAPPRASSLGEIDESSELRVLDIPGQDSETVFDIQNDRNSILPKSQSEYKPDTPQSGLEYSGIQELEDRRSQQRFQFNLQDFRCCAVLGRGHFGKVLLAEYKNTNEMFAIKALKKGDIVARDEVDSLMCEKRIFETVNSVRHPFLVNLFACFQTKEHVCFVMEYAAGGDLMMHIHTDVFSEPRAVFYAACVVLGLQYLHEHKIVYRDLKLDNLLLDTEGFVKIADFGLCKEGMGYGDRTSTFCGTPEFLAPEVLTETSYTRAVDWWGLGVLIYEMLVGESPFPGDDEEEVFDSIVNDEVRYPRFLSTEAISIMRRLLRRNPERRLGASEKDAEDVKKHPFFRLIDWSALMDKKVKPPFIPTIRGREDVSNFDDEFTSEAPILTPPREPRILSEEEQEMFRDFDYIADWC

[5] = target: T2, Serine/threonine-protein kinase N2; assay: Inhibition of NanoLuc-PKN2 (ser646-cys984)(unknown origin) expressed in HEK293 cells by cell-based NanoBRET target engagement assay
[6] = target: T2, Serine/threonine-protein kinase N2; assay: Inhibition of PKN2 (unknown origin) by TR-FRET-based tracer displacement assay
[7] = target: T2, Serine/threonine-protein kinase N2; assay: Inhibition of PKN2 (unknown origin) by TR-FRET-based tracer displacement assay dependent Cheng-Prusoff equation analysis

T1 sequence (Q16512 whole entry): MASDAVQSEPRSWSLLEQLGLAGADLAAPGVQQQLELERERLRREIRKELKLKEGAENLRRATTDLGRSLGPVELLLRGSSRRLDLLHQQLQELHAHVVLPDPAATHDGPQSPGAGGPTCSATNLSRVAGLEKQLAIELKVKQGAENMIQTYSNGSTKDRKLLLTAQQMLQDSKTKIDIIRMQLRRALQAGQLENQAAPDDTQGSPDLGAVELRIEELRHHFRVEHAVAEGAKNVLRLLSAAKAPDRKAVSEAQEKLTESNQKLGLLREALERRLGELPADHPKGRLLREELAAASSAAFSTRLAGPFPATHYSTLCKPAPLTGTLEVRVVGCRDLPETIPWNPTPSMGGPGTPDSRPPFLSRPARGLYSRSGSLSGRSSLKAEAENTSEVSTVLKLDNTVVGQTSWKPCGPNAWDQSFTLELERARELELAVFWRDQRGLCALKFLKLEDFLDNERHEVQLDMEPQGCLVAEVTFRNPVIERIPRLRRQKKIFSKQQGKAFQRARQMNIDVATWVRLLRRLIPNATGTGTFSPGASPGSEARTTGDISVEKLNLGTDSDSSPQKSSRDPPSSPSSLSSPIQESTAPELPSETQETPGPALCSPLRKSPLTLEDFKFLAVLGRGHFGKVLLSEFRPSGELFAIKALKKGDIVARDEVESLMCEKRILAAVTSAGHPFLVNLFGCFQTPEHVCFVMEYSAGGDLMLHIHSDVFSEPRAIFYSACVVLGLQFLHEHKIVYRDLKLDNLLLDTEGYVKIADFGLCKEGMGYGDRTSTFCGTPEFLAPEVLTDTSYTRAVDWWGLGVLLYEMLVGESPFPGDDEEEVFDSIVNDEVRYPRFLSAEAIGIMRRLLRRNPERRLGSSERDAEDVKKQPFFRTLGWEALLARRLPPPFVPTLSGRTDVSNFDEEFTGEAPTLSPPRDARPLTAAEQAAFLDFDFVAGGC

Structure (SMILES) | pKi [1] | viability at 24 h, 50 µM [2] [%] | pIC50 [3] | pIC50 [4] | pIC50 [5] | pIC50 [6] | pKi [7]
O=C1NCCc2[nH]c(-c3ccncc3)cc21 | 6.82 | ≥ 70 | 6.52 | – | – | – | –
CCn1c(-c2ccncc2)cc2c1CCNC2=O | 6.97 | ≥ 70 | 6.68 | 5.96 | 5.68 | 7.80 | 8.10
O=C1NCCc2c1cc(-c1ccncc1)n2CCO | 6.66 | – | 6.36 | – | 4.96 | 7.52 | 7.82
Cn1c(-c2ccncc2)cc2c1CCNC2=O | 5.66 | – | 5.35 | – | – | 6.59 | 6.89
O=C1NCCc2[nH]c(-c3cccnc3)cc21 | – | – | < 5.30 | – | – | 5.49 | 5.80
O=C1NCCc2c1cc(-c1ccncc1)n2Cc1ccccc1 | 5.82 | – | 5.52 | – | – | 6.19 | 6.49
O=C1NC(c2ccccc2)Cc2[nH]c(-c3ccncc3)cc21 (stereo not drawn) | 6.59 | – | 6.28 | – | – | 7.30 | 7.60
CCCN1CCc2c(cc(-c3ccncc3)n2CC)C1=O | – | – | < 5.30 | – | – | 5.59 | 5.89
CCn1c(-c2ccncc2)cc2c1CCN(C)C2=O | – | – | < 5.30 | – | – | 6.46 | 6.77
CCCn1c(-c2ccncc2)cc2c1CCNC2=O | 7.22 | ≥ 70 | 6.92 | – | 5.55 | 7.82 | 8.15
c1cc(-c2cc3c([nH]2)CCNC3)ccn1 | – | – | < 5.30 | – | – | 5.66 | 5.96
CC(C)n1c(-c2ccncc2)cc2c1CCNC2=O | 6.04 | – | 5.74 | – | – | 6.85 | 7.15
O=C1CCCc2[nH]c(-c3ccncc3)cc21 | 6.19 | – | 5.89 | – | – | 7.22 | 7.52
